According to patent publication EP4692090A1 (Shanghai Fosun Pharmaceutical (Group) Co., Ltd., priority 2023, dated 2024):
Read-outs that look alike come from different tables or passages of the source.

Columns and labels:
ATR kinase = biological target: T1, ATR kinase (Homo sapiens, UniProt Q13535); assay: Inhibitory effect on ATR kinase activity (Caliper mobility shift, FAM-labeled RAD17 peptide substrate); format: biochemical
T1 construct: purchased Eurofins 14-953
How it was run: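 Caliper mobility-shift assay with 1 nM ATR, FAM-labeled RAD17 peptide […] and 5 mM ATP in HEPES pH 7.5 with 10 mM MnCl2, run 3 h at 28 °C and stopped with EDTA. Compounds were tested in 10-point 3-fold dilutions from 1 µM. IC50 was fitted from % inhibition of substrate conversion versus blank control.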

LoVo cells = assay: LoVo cell proliferation assay (CellTiter-Glo); format: cell-based; details: Homo sapiens, LoVo, 120 h, maximum concentration 10 µM, 9 concentrations
How it was run: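 LoVo cells, 2,000 per well, were treated after overnight attachment with 9-point 3-fold dilutions from 10 µM for 5 days at 37 °C. Viability was read by CellTiter-Glo luminescence. Inhibition % was taken relative to DMSO control, and IC50 came from the concentration–inhibition curve.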

[1] = 1 nM ATR kinase (Eurofins), 28°C for 3 hours, maximum concentration 1 µM, 10 concentrations, read-out: ATR kinase IC50
[2] = LoVo cells, 2,000 cells per well, 5 days incubation, CellTiter-Glo, read-out: LoVo IC50
[3] = read-out: ATR kinase IC50, 1 nM ATR kinase (Eurofins), 28°C for 3 hours, maximum concentration 1 µM, 10 concentrations
[4] = read-out: LoVo IC50 (nM), LoVo cells, 2,000 cells per well, 5 days incubation, CellTiter-Glo

T1 sequence (Q13535 whole entry): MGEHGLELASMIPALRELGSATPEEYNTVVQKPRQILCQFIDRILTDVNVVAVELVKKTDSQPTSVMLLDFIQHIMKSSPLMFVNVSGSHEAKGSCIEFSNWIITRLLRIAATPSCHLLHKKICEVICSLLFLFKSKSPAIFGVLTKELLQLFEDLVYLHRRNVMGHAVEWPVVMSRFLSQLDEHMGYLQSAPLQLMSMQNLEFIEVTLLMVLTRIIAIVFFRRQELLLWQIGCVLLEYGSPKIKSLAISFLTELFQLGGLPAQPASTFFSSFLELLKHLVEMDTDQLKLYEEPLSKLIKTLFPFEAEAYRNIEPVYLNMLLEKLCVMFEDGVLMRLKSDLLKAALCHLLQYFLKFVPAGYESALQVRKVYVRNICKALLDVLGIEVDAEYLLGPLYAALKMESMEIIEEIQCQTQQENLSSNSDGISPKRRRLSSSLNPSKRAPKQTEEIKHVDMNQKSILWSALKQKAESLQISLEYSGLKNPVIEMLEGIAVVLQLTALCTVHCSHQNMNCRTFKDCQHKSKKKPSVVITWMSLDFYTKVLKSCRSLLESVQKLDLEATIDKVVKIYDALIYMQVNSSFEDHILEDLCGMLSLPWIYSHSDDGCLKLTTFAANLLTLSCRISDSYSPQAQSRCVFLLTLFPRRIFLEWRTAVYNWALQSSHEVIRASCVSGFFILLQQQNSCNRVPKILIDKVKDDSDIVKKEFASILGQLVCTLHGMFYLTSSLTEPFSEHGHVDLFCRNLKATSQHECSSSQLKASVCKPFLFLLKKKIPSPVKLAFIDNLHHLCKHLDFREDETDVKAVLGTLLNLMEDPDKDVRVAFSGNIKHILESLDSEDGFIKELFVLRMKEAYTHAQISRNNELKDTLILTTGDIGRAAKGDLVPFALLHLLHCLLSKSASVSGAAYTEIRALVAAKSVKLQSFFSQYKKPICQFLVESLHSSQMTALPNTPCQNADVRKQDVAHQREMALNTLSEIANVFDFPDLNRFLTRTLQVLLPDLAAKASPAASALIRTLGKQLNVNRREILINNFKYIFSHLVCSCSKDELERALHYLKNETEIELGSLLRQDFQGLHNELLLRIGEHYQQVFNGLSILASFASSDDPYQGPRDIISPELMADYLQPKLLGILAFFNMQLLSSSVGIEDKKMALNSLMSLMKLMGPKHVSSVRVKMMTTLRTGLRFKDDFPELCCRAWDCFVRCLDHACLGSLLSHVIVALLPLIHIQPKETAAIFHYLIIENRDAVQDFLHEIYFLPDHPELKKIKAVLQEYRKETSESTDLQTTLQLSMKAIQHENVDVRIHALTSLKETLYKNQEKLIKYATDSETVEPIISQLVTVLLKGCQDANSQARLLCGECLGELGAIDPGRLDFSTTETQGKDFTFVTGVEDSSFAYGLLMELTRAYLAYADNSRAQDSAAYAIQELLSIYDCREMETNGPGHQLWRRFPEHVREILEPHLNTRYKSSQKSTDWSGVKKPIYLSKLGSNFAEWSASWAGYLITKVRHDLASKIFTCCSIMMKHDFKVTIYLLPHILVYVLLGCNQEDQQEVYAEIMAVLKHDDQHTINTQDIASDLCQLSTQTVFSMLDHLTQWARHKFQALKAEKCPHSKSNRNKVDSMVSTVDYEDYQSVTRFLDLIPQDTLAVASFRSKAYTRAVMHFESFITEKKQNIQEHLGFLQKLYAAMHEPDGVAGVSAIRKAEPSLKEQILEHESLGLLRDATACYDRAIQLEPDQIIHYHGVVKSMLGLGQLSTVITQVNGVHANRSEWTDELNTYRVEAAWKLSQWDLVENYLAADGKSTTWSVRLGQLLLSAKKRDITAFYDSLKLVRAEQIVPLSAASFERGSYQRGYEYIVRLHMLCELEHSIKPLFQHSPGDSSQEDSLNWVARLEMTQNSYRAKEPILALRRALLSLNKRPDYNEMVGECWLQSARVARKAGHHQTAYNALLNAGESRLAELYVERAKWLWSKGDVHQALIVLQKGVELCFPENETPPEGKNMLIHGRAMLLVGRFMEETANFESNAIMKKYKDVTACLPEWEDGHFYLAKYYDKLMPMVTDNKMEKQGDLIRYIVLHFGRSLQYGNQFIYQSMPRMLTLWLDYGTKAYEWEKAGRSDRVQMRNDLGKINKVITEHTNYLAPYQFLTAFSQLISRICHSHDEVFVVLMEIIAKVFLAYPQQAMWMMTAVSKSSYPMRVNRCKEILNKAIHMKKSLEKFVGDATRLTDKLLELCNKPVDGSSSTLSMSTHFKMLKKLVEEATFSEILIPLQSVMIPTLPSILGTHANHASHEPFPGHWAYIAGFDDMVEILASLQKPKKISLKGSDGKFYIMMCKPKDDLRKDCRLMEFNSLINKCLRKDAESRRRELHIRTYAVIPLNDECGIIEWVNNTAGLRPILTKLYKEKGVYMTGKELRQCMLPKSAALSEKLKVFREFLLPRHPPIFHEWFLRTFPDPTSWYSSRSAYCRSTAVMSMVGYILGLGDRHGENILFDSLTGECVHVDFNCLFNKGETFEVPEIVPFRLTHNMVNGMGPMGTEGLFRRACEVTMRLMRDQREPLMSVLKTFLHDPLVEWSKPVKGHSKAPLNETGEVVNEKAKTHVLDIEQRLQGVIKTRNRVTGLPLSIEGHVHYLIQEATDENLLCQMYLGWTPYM
T1 sequence (Q8WXE1 whole entry partner): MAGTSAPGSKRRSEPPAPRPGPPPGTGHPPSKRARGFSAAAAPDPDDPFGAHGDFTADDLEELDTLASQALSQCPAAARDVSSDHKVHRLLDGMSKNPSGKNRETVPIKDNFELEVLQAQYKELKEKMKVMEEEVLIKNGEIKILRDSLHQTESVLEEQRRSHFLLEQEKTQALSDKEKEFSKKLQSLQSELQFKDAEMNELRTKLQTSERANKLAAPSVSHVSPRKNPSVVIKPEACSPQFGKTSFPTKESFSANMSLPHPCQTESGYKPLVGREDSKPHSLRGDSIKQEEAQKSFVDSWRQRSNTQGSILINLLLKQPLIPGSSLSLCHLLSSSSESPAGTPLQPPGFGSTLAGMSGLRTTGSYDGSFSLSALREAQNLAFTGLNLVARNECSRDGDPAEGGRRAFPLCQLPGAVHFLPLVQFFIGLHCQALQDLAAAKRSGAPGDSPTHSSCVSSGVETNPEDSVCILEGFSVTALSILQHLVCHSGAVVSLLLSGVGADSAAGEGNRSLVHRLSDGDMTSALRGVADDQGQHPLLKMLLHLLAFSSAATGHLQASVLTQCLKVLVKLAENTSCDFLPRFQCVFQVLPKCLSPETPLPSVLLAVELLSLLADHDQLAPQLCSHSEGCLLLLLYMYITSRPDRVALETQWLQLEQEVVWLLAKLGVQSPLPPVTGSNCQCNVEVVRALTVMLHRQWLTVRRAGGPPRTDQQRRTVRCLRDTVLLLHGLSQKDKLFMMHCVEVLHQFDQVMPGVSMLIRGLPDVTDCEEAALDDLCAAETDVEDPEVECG

Structure (SMILES) | IC50 (ATR kinase; [1]) [nM] | IC50 (LoVo cells; [2]) [nM] | IC50 (ATR kinase; [3]) [nM] | IC50 (LoVo cells; [4]) [nM] | IC50 (ATR kinase; ATR kinase IC50 (nM), 1 nM ATR kinase (Eurofins), 28°C for 3 hours, maximum concentration 1 µM, 10 concentrations) [nM]
CC1Cn2nc(-c3cc[nH]n3)c3nc(N4CCOC[C@H]4C)cc(c32)N(C(C)C)C1=O (stereo partly drawn) [Compound 119, 6-isopropyl-8-methyl-4-((R)-3-methylmorpholino)-2-(1H-pyrazol-3-yl)-8,9-dihydro-1,3,6,9a-tetraazabenzo[cd]azulene-7(6H)-one] | 10 to 100 | 100 to 1000 | – | – | –
CC(C)N1CCCn2nc(-c3cc[nH]n3)c3nc(N4CCOC[C@H]4C)cc1c32 [Compound 120, (R)-4-(6-isopropyl-2-(1H-pyrazol-3-yl)-6,7,8,9-tetrahydro-1,3,6,9a-tetraazabenzo[cd]azulen-4-yl)-3-methylmorpholine] | 10 to 100 | 100 to 1000 | – | – | –
C[C@@H]1COCCN1c1cc2c3c(n1)c(-c1cc[nH]n1)nn3CCCN2S(C)(=O)=O [Compound 121, (R)-3-methyl-4-(6-(methylsulfonyl)-2-(1H-pyrazol-3-yl)-6,7,8,9-tetrahydro-1,3,6,9a-tetraazabenzo[cd]azulen-4-yl)morpholine] | 10 to 100 | < 100 | – | – | –
C[C@@H]1COCCN1c1cc2c3c(n1)c(-c1cc[nH]n1)nn3CCCN2C1CC1 [Compound 122, (R)-4-(6-cyclopropyl-2-(1H-pyrazol-3-yl)-6,7,8,9-tetrahydro-1,3,6,9a-tetraazabenzo[cd]azulen-4-yl)-3-methylmorpholine] | 10 to 100 | 100 to 1000 | – | – | –
C[C@@H]1COCCN1c1cc2c3c(n1)c(-c1cc[nH]n1)nn3CCCN2CC(C)(C)O [Compound 123, (R)-2-methyl-1-(4-(3-methylmorpholinyl)-2-(1H-pyrazol-3-yl)-8,9-dihydro-1,3,6,9a-tetraazabenzo[cd]azulene-6(7H)-yl)propan-2-ol] | – | – | 10 to 100 | 100 to 1000 | –
C[C@@H]1COCCN1c1cc2c3c(nn(-c4cc[nH]n4)c3n1)CCN(C1CC1)C2=O [Compound 132, (R)-7-cyclopropyl-4-(3-methylmorpholino)-2-(1H-pyrazol-3-yl)-2,7,8,9-tetrahydro-6H-1,2,3,7-tetraazabenzo[cd]azulene-6-one] | 10 to 100 | < 100 | – | – | –
C[C@@H]1COCCN1c1cc2c3c(nn(-c4cc[nH]n4)c3n1)CCN(C1COC1)C2C1CC1 (stereo partly drawn) [Compound 135, (3R)-4-(6-cyclopropyl-7-(oxetan-3-yl)-2-(1H-pyrazol-3-yl)-6,7,8,9-tetrahydro-2H-1,2,3,7-tetraazabenzo[cd]azulen-4-yl)-3-methylmorpholine] | 10 to 100 | < 100 | – | – | –
CC(C)C1c2cc(N3CCOC[C@H]3C)nc3c2c(nn3-c2cc[nH]n2)CCN1C1COC1 (stereo partly drawn) [Compound 136, (3R)-4-(6-isopropyl-7-(oxetan-3-yl)-2-(1H-pyrazol-3-yl)-6,7,8,9-tetrahydro-2H-1,2,3,7-tetraazabenzo[cd]azulen-4-yl)-3-methylmorpholine] | 10 to 100 | < 100 | – | – | –
C[C@@H]1COCCN1c1cc2c3c(nn(-c4cc[nH]n4)c3n1)CCN(C13CC(C1)C3)C2=O [Compound 139, (R)-7-(bicyclo[1.1.1]pentan-1-yl)-4-(3-methylmorpholinyl)-2-(1H-pyrazol-3-yl)-2,7,8,9-tetrahydro-6H-1,2,3,7-tetraazabenzo[cd]azulene-6-one] | – | – | < 10 | 100 to 1000 | –
C[C@@H]1COCCN1c1cc2c3c(nn(-c4cc[nH]n4)c3n1)CCOC2(C)C [Compound 146, (R)-6,6-dimethyl-4-(3-methylmorpholino)-2-(1H-pyrazol-3-yl)-2,6,8,9-tetrahydro-7-oxa-1,2,3-triazabenzo[cd]azulene] | < 10 | < 100 | – | – | –
C[C@@H]1COCCN1c1cc2c3c(nn(-c4cc[nH]n4)c3n1)CCOC21CCC1 [Compound 147, (R)-4-(3-Methylmorpholino)-2-(1H-pyrazol-3-yl)-8,9-dihydro-2H-7-oxa-1,2,3-triazaspiro[benzo[cd]azulene-6,1'-cyclobutane]-1(9a),2a,2a1(5a),4-tetraene] | – | – | – | < 100 | < 10
C[C@@H]1COCCN1c1cc2c3c(nn(-c4cc[nH]n4)c3n1)CCN(C)C2(C)C [Compound 149, (R)-3-methyl-4-(6,6,7-trimethyl-2-(1H-pyrazol-3-yl)-6,7,8,9-tetrahydro-2H-1,2,3,7-tetraazabenzo[cd]azulen-4-yl)morpholine] | < 10 | < 100 | – | – | –
CC1c2cc(N3CCOC[C@H]3C)nc3c2c(nn3-c2cc[nH]n2)CCN1S(C)(=O)=NC1CC1 (stereo partly drawn) [Compound 153, (3R)-4-(7-(N-cyclopropyl-S-methylsulfonylimino)-6-methyl-2-(1H-pyrazol-3-yl)-6,7,8,9-tetrahydro-2H-1,2,3,7-tetraazabenzo[cd]azulen-4-yl)-3-methylmorpholine] | – | – | 10 to 100 | 100 to 1000 | –
C[C@@H]1COCCN1c1cc2c3c(nc(-c4cc[nH]n4)n3n1)CCC(=O)N2C1(C)CC1 [Compound 154, (R)-6-(1-methylcyclopropyl)-4-(3-methylmorpholino)-2-(1H-pyrazol-3-yl)-8,9-dihydro-1,2a,3,6-tetraazabenzo[cd]azulene-7(6H )-one] | < 10 | < 100 | – | – | –
